Assay [1] can be described thus: Plasma extravasation, Evans blue dye. Format: in vivo, mouse. To be noted: Evans blue optical density, normalized to uninjected paw; capsaicin WT n=9, DKO n=7; AITC n=8 each. How it is done:
(§1) Mice were anesthetized using isoflurane. 200 μl of Evans Blue dye was injected into the mouse’s tail vein. 15 mins later, one hindpaw was injected with an algogen. After a further 30 mins, the volume of each paw was measured by displacement using a plethysmometer (Ugo Basile). Both paws were then cut at the ankle and placed in tubes in the oven at 55 °C for 24 hours to dry. 1 ml of formamide was then added to each paw and incubated for 4–6 days at 55 °C to extract the dye from the paw tissue. 50 μl samples of dye-infused formamide from each paw were then dispensed to a 96 well plate in duplicate, along with a range of Evans blue dilutions in formamide to generate a standard curve. The optical density of each sample was then measured using a plate-reader, and the concentration of Evans Blue per paw sample interpolated from the standard curve to generate an index of extravasation in that paw.

Assay [2] in a line: Chemical algogens, licking behavior after intraplantar injection. The assay is classed as in vivo, mouse. Conditions: 20 μl intraplantar, time licking in 5 min. On the procedure:
0.3% capsaicin in 80% saline / 10% Tween-80 / 10% ethanol or 1% AITC in saline was injected into the plantar surface of the hind paw. The injected volume for both was 20 μl. Mice were video-taped for 5 minutes. A blinded observer scored the amount of time in seconds the mouse spent licking the injected paw in a 5-minute time period.

Assay [3] in a line: Hindpaw swelling / oedema, paw volume. To be noted: for Swelling of the hindpaw: hindpaw of DKO mice compared with WT, observation on injection; for Paw oedema (paw volume): intraplantar injection, volume normalized to uninjected paw, capsaicin WT n=9, DKO n=7, AITC n=8 each. Format: in vivo, mouse. On the procedure:
as §1

Assay [4] can be described thus: LiCl conditioned taste aversion. The assay is classed as in vivo, mouse. Conditions: lithium chloride 200 mg/kg injection paired with 15 mM saccharin; WT n=7, DKO n=6. How it is done: Mice were single-housed and habituated for 3 days to drink from two glass bottles with stainless-steel ball-bearing spouts. Mice then received 3 days of training, where they were water-deprived for 22 hours followed by 30 mins exposure to a single water-containing bottle, then 90 mins exposure to both bottles. On the conditioning day, after 22 hours of water deprivation, mice were exposed to a single bottle containing saccharin water (15 mM) for 45 mins. Mice were then injected with lithium chloride (200 mg/kg) or PBS, and then given ordinary water for 75 mins. The animals were then water deprived for a further 22 hours. On the test day, mice were simultaneously exposed to a bottle containing water and a bottle containing saccharin for 45 mins. The volume of each solution consumed was measured by weighing the bottles before and after. To calculate the saccharin preference index of each animal, the volume of saccharin consumed was divided by the total of fluid consumed, with a value less than 0.5 indicating the development of an aversion to saccharin. […]
bioRxiv preprint doi: https://doi.org/10.1101/2023.11.15.567208; this version posted December 2, 2024. […]
Figure 2 – f igure supplement 2. Tac1::Calca DKO mice develop LiCl-induced conditioned taste aversion (A) Quantification of conditioned taste aversion (CT A) test in W T (blue ) and DKO (red) mice. […]

Assay [5] in a line: Inflammatory pain model, Hargreaves radiant heat. Format: in vivo, mouse. Conditions: PGE2 20 μl, 500 nM intraplantar. How it is done:
The radiant heat stimulus was aimed for the centre of the plantar region of the mouse’s hind paw. The active intensity of the low stimulus was 40 intensity units, and of the high stimulus 55. The response latency was recorded for 5 trials with 10-minute breaks in between each trial.
CFA and PGE2 was purchased from Sigma. 20 μl of CFA was injected into the heel of the hind paw. PGE2 (20 μl, 500 nM) was injected into the plantar surface of the hindpaw, and behavior was assessed over the same time-frame that produces in vivo sensitization of nociceptor responses (up to 120 minutes). Inflammation-induced hypersensitivity was measured using the Hargreaves and the von Frey, as described above.

The conditions of assay [6]: 0.6% acetic acid, 10 μl per gram, intraperitoneal; writhes in 15 min starting 5 min after injection; WT n=9, DKO n=7. How it is done: Mice were habituated on a plexiglass stand for 1 hour. 0.6% of acetic acid was injected intraperitoneally at a dose of 10 μl per gram weight of the animal. Mice were videotaped for 20 minutes. The number of writhes was quantified post-hoc by a blinded observer during a 15-minute interval between 5 and 20 minutes after injection.

A short description of assay [7]: Acetone evoked cold response. To be noted: acetone droplet on paw; time licking in 60 s; WT n=12, DKO n=12. The assay is classed as in vivo, mouse. How it is done: Mice were habituated on a plexiglass floor stand for 1 hour. Mice were videotaped as acetone was applied to the plantar region of their hind paw. Acetone was applied using a custom-made applicator, consisting of a 1ml syringe and plastic well where acetone was pushed out to generate a droplet for applying to the paw. Behavior was scored post-hoc by a blinded observer and the total amount of time spent licking the paw in a 60 second time interval was recorded. The experiment was repeated for a second trial and average scores were used.

In assay [8] the target is T1, Substance P receptor (NKR1) (Mus musculus, UniProt P30548).
T1 construct: T2A self-cleaving peptide remnant (from the polycistronic P2A-TACR1-T2A cassette) (C); expressed in transfected cells; host or cells: Flp-In T-REx HEK293 (Thermo Fisher Scientific, R78007), lentiviral transduction, hygromycin selection
T1 sequence (P30548 whole entry): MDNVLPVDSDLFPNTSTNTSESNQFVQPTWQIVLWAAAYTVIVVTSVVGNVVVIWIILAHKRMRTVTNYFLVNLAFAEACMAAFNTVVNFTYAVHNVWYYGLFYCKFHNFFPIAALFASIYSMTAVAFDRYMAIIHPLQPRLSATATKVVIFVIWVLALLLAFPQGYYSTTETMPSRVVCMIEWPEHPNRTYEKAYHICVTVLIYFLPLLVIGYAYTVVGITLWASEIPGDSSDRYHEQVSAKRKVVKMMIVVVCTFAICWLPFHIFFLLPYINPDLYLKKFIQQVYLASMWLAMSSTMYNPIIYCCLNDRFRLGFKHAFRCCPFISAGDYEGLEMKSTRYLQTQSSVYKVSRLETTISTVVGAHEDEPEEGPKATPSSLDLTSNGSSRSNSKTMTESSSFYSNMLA
The assay can be described thus: Co-culture of DRG neurons with Substance P-sniffer cells, capsaicin-evoked Substance P release. Format: cell-based. To be noted: capsaicin 10 μM, n=12 wells from 2 mice; for Substance P-sniffer GCaMP response, WT DRG: co-culture with WT (control) DRG neurons.

In assay [9] the test system is dorsal horn network activation. Kind of assay: Capsaicin-evoked dorsal horn Fos staining. The assay is classed as in vivo. To be noted: capsaicin 0.3% into right hindpaw; WT n=5, DKO n=4; mean Fos puncta of 5 sections per mouse.
The target of assay [10] is T2, CGRP receptor (Calcrl and Ramp1) (Mus musculus, UniProt Q9R1W5+Q9WTJ5).
T2 construct: expressed in transfected cells; host or cells: HEK293; Calcrl/Gα15/GCaMP6s by PiggyBac transposase (puromycin), Ramp1 by pSBbi-Neo-cmv-TETo2-RAMP1 IRES-mTagBFP2-NLS (geneticin); doxycycline-induced
T2 sequence (Q9R1W5 23-463): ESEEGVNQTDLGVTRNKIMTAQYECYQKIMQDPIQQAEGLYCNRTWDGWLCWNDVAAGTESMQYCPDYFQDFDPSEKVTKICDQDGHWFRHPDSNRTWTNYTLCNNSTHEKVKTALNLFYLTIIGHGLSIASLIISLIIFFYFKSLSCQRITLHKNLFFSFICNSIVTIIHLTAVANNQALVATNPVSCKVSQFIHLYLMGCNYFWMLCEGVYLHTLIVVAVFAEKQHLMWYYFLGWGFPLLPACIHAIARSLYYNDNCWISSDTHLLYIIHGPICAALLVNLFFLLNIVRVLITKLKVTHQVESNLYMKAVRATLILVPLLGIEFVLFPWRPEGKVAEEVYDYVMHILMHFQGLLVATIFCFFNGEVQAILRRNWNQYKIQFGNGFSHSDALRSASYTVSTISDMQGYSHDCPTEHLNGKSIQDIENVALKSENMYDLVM
T2 sequence (Q9WTJ5 27-148): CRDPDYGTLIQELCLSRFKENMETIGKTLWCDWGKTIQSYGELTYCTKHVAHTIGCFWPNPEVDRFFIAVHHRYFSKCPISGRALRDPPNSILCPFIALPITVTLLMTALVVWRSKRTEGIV
Kind of assay: Co-culture of DRG neurons with CGRP-sniffer cells, capsaicin-evoked CGRPα release. The assay is classed as cell-based. To be noted: capsaicin 10 μM, n=18 wells from 3 mice.

A short description of assay [11]: Chloroquine-induced itch, scratching bouts. The assay is classed as in vivo, mouse. Conditions: 20 μl of 25 μM chloroquine diphosphate intradermal, nape of neck; scratching bouts in 15 min; WT n=8, DKO n=11. How it is done:
Hair from the nape of the mouse’s neck was removed 2–3 days prior to behavioral experiments using VEET hair removal cream and the area thoroughly washed and moisturizing cream applied. Mice were habituated to transparent acrylic chambers (10cm × 10cm × 13cm) 30 minutes prior to injection. Post habituation, a blinded investigator injected 20 μl of 25 μM Chloroquine diphosphate salt (Sigma-Aldrich: C6628) solution in 0.9% saline intradermally into the nape of the neck using a 31G insulin syringe. Videos were quantified by a separate blinded investigator with a scratching bout counted each time the mouse attended to the injected area with the hind paw after the paw was removed from the floor or mouth.

Assay [12] in a line: Oxaliplatin cold allodynia, Cold Plate. The assay is classed as in vivo, mouse. To be noted: one day after intraplantar oxaliplatin; Cold Plate 10 °C, 5 min; WT n=9, DKO n=6. The source says:
The plate was set to the desired temperature. A camera set up with a mirror was used for better visibility of the mouse on the hot plate. A clear cylindrical tube was placed around the hot plate to ensure the mouse cannot escape. Once the hot plate reached the set temperature, the mouse was placed on the hot plate and the top of the cylinder was covered. At the cut-off time, the mouse was taken off the hot plate and placed back in the cage. The latency to lick was scored post-hoc using the recorded videos by a blinded observer.
Chemotherapy-induced neuropathy was induced in mice by intraplantar injection of oxaliplatin into the left hind paw ([Deuis et al., 2013]; [MacDonald et al., 2021]). Oxaliplatin was made up to a dose of 80 μg in 40 μl of 5% glucose solution, due to its instability in chloride-containing saline solution. The number of nocifensive behaviors in 5 mins was assessed on the Cold Plate held at 10 °C 24 hours later.

The conditions of assay [13]: ref MacDonald et al., 2021; cited from earlier work. The source says: Lastly, we investigated how dual peptide deletion affected the development of allodynia symptoms, where innocuous stimuli are perceived as painful, in two mouse models of neuropathic pain ([Jensen and Finnerup, 2014]).

Each structure is given as a SMILES string. Entries after “also recorded” stand apart in the source; their conditions may differ.

`C=CCN=C=S` [AITC, allyl isothiocyanate]: the Plasma extravasation entry in assay [1] is “both WT and DKO mice show paw swelling and plasma extravasation”. In addition, in [2] (1% AITC in saline, WT n=12, DKO n=12), the “Licking behavior, AITC” value is on record as “evoked similar licking behavior to capsaicin that was unaffected by peptide deletion”. Besides, in assay [3], the “Swelling of the hindpaw” value was “provoked swelling of the hindpaw of DKO mice to a similar extent as WT mice”; the “Paw oedema (paw volume)” value was “both WT and DKO mice show paw swelling”.
On to `[Cl-].[Li+]` [LiCl, lithium chloride], for which the “Conditioned taste aversion (saccharin preference)” value in assay [4] was “pr onoun ced; also recorded: strong and indistinguishable conditioned taste aversion in both WT and DKO mice”.
As to `CCCCC[C@H](O)/C=C/[C@H]1[C@H](O)CC(=O)[C@@H]1C/C=C\CCCC(=O)O` [PGE2, Prostaglandin E2], the “WT vs DKO difference in Hargreaves latency after PGE2, post-hoc” value in assay [5] (post-hoc Sidak's test, WT n=10, DKO n=10) is on record as “only the 120 min time-point shows a significant difference (p=0.025)”. Moreover, the “Heat and mechanical hypersensitivity, PGE2” value in assay [5] (up to 120 min, Hargreaves (n=10 each) and von Frey (n=6 each)) is “short-lasting heat and mechanical hypersensitivity to a similar extent in both WT and DKO mice”. Besides, the “Swelling of the hindpaw” value in [3] is “provoked swelling of the hindpaw of DKO mice to a similar extent as WT mice”.
Turning to `CC(=O)O` [acetic acid], in assay [6], the Writhing behavior result was “comparable writhing behavior in both WT and DKO mice”.
Consider `CC(C)=O` [acetone], for which the “Cold response evoked by acetone” value in assay [7] was “the same between groups”.
On to `COc1cc(CNC(=O)CCCC/C=C/C(C)C)ccc1O` [capsaicin], for which the “Substance P-sniffer GCaMP response, DKO DRG” value in assay [8] (co-culture with DKO DRG neurons) is on record as “no Substance P-sniffer cell responses”. The “Substance P-sniffer GCaMP response, WT DRG” value is given as “robust GCaMP responses” in [8] and “increase in Substance P-sniffer GCaMP6s fluorescence” in assay [8] (listed as Capsaicin). Further, the Plasma extravasation result in [1] is “both WT and DKO mice show paw swelling and plasma extravasation; also recorded: plasma extravasation was intact in DKO mice”. Moreover, the “Dorsal horn Fos expression, capsaicin-evoked” value in assay [9] is recorded as “No differences in dorsal horn Fos expression were observed”. Besides, in [2] (0.3% capsaicin, WT n=9, DKO n=8), the “Licking behavior, capsaicin” value was “evoked coping-like licking responses in both genotypes, however responses were variable and although decreased licking was observed in some DKO mice, differences did not reach statistical significance”. Further, the “Swelling of the hindpaw” value in [3] is reported as “provoked swelling of the hindpaw of DKO mice to a similar extent as WT mice”. The “Paw oedema (paw volume)” value in [3] was “both WT and DKO mice show paw swelling; also recorded: no appreciable differences in capsaicin-induced swelling between WT and DKO mice”. Also, the “CGRP-sniffer calcium response, WT DRG” value in assay [10] was “strong increases in calcium”; in [10] (listed as Capsaicin), “increase in CGRP-sniffer GCaMP6s fluorescence”.
For `CCN(CC)CCCC(C)Nc1ccnc2cc(Cl)ccc12` (centres unmarked) [chloroquine], the Scratching entry in [11] is “DKO mice scratched robustly following intradermal chloroquine injection, a response indistinguishable from WT animals”.
As for `O=C1[O][Pt]2([NH][C@@H]3CCCC[C@H]3[NH]2)[O]C1=O` [oxaliplatin], the “Cold allodynia, pain-like behaviors” value in assay [12] is reported as “pronounced pain-like behaviors”. Besides, in assay [13], the “Cold allodynia (literature)” value is on record as “evokes extreme cold allodynia”.

The values are drawn from publication doi:10.1101/2023.11.15.567208 (bioRxiv, 2024).
